From publication PMC11418745 (Molecular cell, 2023)
Like-named read-outs stand apart in the source and are kept apart here.

Key:
[1] = biological target: T1, SIR2-HerA complex (SIR2 NADase site) (Escherichia coli, UniProt A0ABF7PQ24); experiment: cryo-EM structure, […] Å; assay type: binding; conditions: SIR2 active site; 12:6 complex (also 12:5 8SUB and 12:4 8SUW)
[2] = biological target: SIR2-HerA complex (HerA nucleotide site) (Escherichia coli, UniProt A0ABF7PQ25); experiment: ATPase kit, colorimetric phosphate; assay type: biochemical; conditions: 20 mM Tris pH 8.0, 75 mM KCl, 2 mM MgCl2, 37 °C
EcSIR2 dodecamer = EcSIR2 dodecamer (Escherichia coli, UniProt A0ABF7PQ24); experiment: cryo-EM structure, […] Å; assay type: binding; conditions: active site of SIR2 dodecamer without HerA; not hydrolysed
[3] = biological target: T1, SIR2-HerA complex (SIR2 NADase site); experiment: ε-NAD+ fluorescence NADase assay; assay type: biochemical; conditions: 0.5 μM protein, 20 mM Tris pH 8.0, 75 mM KCl, 2 mM MgCl2, 33 °C
cryo-EM structure [4] = biological target: the molecule itself; experiment: cryo-EM structure
cryo-EM structure [5] = biological target: the molecule itself; experiment: cryo-EM structure; remark: listed apart in the source

In the case of `Nc1ncnc2c1ncn2[C@@H]1O[C@H](COP(=O)(O)OP(=O)(O)OC[C@H]2OC(O)[C@H](O)[C@@H]2O)[C@@H](O)[C@H]1O` (stereo partly shown) [ADPR], the “cryo-EM structure, 2.83 Å” value [1] is reported as “an ADPR molecule, the product of NAD^+ hydrolysis, occupied the active site of EcSIR2”.

With `Nc1ncnc2c1ncn2[C@@H]1O[C@H](COP(=O)(O)OP(=O)(O)OP(=O)(O)O)[C@@H](O)[C@H]1O` [ATP] the “ATPase kit, colorimetric phosphate” value [2] was “the SIR2-HerA complex, not HerA alone, can hydrolyze ATP”.

With `NC(=O)c1ccc[n+]([C@@H]2O[C@H](COP(=O)(O)OP(=O)(O)OC[C@H]3O[C@@H](n4cnc5c(N)ncnc54)[C@H](O)[C@@H]3O)[C@@H](O)[C@H]2O)c1` [NAD^+] the “cryo-EM structure, 3.6 Å” value (EcSIR2 dodecamer) was “identified an NAD^+ molecule in the active site of EcSIR2”.

`NC(=O)c1ccc[n+]([C@@H]2O[C@H](COP(=O)(O)OP(=O)(O)OC[C@H]3O[C@@H](n4cnc5c4ncn4ccnc54)[C@H](O)[C@@H]3O)[C@@H](O)[C@H]2O)c1` [ε-NAD^+] was tested, and the “ε-NAD+ fluorescence NADase assay” value [3] was “To test the NADase activities of the SIR2-HerA complex and SIR2 alone, ε-NAD^+ assays”.

B1: E. coli SIR2 (EcSIR2) co-expressed with HerA as the SIR2-HerA complex (enzyme)
chain: MSIYQGGNKLNEDDFRSHVYSLCQLDNVGVLLGAGASVGCGGKTMKDVWKSFKQNYPELLGALIDKYLLVSQIDSDNNLVNVELLIDEATKFLSVAKTRRCEDEEEEFRKILSSLYKEVTKAALLTGEQFREKNQGKKDAFKYHKELISKLISNRQPGQSAPAIFTTNYDLALEWAAEDLGIQLFNGFSGLHTRQFYPQNFDLAFRNVNAKGEARFGHYHAYLYKLHGSLTWYQNDSLTVNEVSASQAYDEYINDIINKDDFYRGQHLIYPGANKYSHTIGFVYGEMFRRFGEFISKPQTALFINGFGFGDYHINRIILGALLNPSFHVVIYYPELKEAITKVSKGGGSEAEKAIVTLKNMAFNQVTVVGGGSKAYFNSFVEHLPYPVLFPRDNIVDELVEAIANLSKGEGNVPF
B1 was tested, and the “stoichiometry N” value (cryo-EM structure [4]) was 12.

B2: E. coli SIR2 (EcSIR2), expressed alone (enzyme)
chain: MSIYQGGNKLNEDDFRSHVYSLCQLDNVGVLLGAGASVGCGGKTMKDVWKSFKQNYPELLGALIDKYLLVSQIDSDNNLVNVELLIDEATKFLSVAKTRRCEDEEEEFRKILSSLYKEVTKAALLTGEQFREKNQGKKDAFKYHKELISKLISNRQPGQSAPAIFTTNYDLALEWAAEDLGIQLFNGFSGLHTRQFYPQNFDLAFRNVNAKGEARFGHYHAYLYKLHGSLTWYQNDSLTVNEVSASQAYDEYINDIINKDDFYRGQHLIYPGANKYSHTIGFVYGEMFRRFGEFISKPQTALFINGFGFGDYHINRIILGALLNPSFHVVIYYPELKEAITKVSKGGGSEAEKAIVTLKNMAFNQVTVVGGGSKAYFNSFVEHLPYPVLFPRDNIVDELVEAIANLSKGEGNVPF
With B2 the “stoichiometry N” value (cryo-EM structure [5]) was 12.

B3: E. coli HerA (EcHerA) co-expressed with SIR2 as the SIR2-HerA complex (enzyme)
chain: MSLFKLTEISAIGYVVGLEGERIRINLHEGLQGRLASHRKGVSSVTQPGDLIGFDAGNILVVARVTDMAFVEADKAHKANVGTSDLADIPLRQIIAYAIGFVKRELNGYVFISEDWRLPALGSSAVPLTSDFLNIIYSIDKEELPKAVELGVDSRTKTVKIFASVDKLLSRHLAVLGSTGYGKSNFNALLTRKVSEKYPNSRIVIFDINGEYAQAFTGIPNVKHTILGESPNVDSLEKKQQKGELYSEEYYCYKKIPYQALGFAGLIKLLRPSDKTQLPALRNALSAINRTHFKSRNIYLEKDDGETFLLYDDCRDTNQSKLAEWLDLLRRRRLKRTNVWPPFKSLATLVAEFGCVAADRSNGSKRDAFGFSNVLPLVKIIQQLAEDIRFKSIVNLNGGGELADGGTHWDKAMSDEVDYFFGKEKGQENDWNVHIVNMKNLAQDHAPMLLSALLEMFAEILFRRGQERSYPTVLLLEEAHHYLRDPYAEIDSQIKAYERLAKEGRKFKCSLIVSTQRPSELSPTVLAMCSNWFSLRLTNERDLQALRYAMESGNEQILKQISGLPRGDAVAFGSAFNLPVRISINQARPGPKSSDAVFSEEWANCTELRC
B3 was tested, and the “stoichiometry N” value (cryo-EM structure [4]) was 6.
